Data set [1] deals with T1, PI 3-kinase gamma (Homo sapiens, UniProt P48736). Nature of the data set: Cellular U937 AKT assay K1 (MSD). Format: cell-based. The note with it: U937 cells, K1 format; read-out: Assay K1 PI3Kγ IC50.
In data set [2] the target is T1, PI 3-kinase gamma. The data set can be described thus: TR-FRET Adapta assay, assay E. Format: biochemical. The note with it: read-out: Assay E PI3Kγ IC50. (In TR-FRET formats the signal depends on donor and acceptor labels being close together.)
For the next data set, the target named is PI 4-kinase beta (Homo sapiens, UniProt Q9UBF8). Nature of the data set: Kinase Glo Luminescent Kinase Assay (Kglo), assay D. Format: biochemical. The note with it: read-out: Assay D PI4Kβ IC50. A general note: Kinase-Glo reads ATP consumption through a luciferase reaction.
Data set [3] concerns the target T2, PI 3-kinase delta (Homo sapiens, UniProt O00329). Nature of the data set: TR-FRET Adapta assay, assay F. The note with it: read-out: Assay F PI3Kδ IC50.
Target sequence in this assay (O00329 whole entry): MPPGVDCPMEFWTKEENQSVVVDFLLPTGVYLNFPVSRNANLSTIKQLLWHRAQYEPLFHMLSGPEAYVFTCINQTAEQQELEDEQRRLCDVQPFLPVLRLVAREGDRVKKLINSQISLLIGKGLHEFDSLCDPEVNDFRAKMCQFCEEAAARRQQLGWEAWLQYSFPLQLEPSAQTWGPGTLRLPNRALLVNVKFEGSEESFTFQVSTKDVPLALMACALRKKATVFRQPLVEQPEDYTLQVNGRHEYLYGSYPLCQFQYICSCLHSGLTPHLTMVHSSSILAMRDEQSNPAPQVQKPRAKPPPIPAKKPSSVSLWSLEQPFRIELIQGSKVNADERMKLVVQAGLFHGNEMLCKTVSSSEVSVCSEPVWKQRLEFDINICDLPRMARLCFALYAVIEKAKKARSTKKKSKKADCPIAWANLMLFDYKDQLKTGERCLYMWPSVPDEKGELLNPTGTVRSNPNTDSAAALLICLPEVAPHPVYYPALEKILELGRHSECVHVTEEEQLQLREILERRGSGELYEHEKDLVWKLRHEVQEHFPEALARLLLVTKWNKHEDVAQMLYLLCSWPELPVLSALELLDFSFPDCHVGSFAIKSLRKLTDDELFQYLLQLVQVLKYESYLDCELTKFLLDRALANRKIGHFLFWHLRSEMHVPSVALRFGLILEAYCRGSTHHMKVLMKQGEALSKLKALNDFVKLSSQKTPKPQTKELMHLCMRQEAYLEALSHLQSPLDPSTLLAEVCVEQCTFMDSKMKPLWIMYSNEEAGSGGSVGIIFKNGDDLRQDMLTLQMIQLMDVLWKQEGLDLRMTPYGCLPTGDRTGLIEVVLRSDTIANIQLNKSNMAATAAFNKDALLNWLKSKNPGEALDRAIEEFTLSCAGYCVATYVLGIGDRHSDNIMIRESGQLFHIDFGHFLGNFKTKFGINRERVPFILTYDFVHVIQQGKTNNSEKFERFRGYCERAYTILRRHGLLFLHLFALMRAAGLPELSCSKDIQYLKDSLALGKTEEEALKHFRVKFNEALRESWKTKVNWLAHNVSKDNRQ
Target sequence in this assay (P27986 461-568 partner): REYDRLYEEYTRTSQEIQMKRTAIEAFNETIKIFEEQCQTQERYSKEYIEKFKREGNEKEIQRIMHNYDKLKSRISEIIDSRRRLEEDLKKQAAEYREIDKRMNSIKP
Data set [4] addresses T3, PI 3-kinase alpha (Homo sapiens, UniProt P42336). The data set can be described thus: Kinase Glo Luminescent Kinase Assay (Kglo), assay A. The note with it: read-out: Assay A PI3Kα IC50. Format: biochemical.
Data set [5] addresses T2, PI 3-kinase delta. Nature of the data set: Cellular assay J1, p-Akt (S473) in Rat-1 cells, Surefire format. Format: cell-based. Conditions: non-asterisked data: version J1 (Surefire format), Rat-1 cells; read-out: Assay J PI3Kδ IC50.
Data set [6] has as its target T3, PI 3-kinase alpha. Nature of the data set: Cellular assay H1, p-Akt (S473) in Rat-1 cells, Surefire format. Format: cell-based. The note with it: non-asterisked data: version H1 (Surefire format), Rat-1 cells; read-out: Assay H PI3Kα IC50.
Data set [7] has as its target T4, PI 3-kinase beta (Homo sapiens, UniProt P42338). Nature of the data set: Kinase Glo Luminescent Kinase Assay (Kglo), assay B. Format: biochemical. Conditions: read-out: Assay B PI3Kβ IC50.
Target sequence in this assay (P42338 whole entry): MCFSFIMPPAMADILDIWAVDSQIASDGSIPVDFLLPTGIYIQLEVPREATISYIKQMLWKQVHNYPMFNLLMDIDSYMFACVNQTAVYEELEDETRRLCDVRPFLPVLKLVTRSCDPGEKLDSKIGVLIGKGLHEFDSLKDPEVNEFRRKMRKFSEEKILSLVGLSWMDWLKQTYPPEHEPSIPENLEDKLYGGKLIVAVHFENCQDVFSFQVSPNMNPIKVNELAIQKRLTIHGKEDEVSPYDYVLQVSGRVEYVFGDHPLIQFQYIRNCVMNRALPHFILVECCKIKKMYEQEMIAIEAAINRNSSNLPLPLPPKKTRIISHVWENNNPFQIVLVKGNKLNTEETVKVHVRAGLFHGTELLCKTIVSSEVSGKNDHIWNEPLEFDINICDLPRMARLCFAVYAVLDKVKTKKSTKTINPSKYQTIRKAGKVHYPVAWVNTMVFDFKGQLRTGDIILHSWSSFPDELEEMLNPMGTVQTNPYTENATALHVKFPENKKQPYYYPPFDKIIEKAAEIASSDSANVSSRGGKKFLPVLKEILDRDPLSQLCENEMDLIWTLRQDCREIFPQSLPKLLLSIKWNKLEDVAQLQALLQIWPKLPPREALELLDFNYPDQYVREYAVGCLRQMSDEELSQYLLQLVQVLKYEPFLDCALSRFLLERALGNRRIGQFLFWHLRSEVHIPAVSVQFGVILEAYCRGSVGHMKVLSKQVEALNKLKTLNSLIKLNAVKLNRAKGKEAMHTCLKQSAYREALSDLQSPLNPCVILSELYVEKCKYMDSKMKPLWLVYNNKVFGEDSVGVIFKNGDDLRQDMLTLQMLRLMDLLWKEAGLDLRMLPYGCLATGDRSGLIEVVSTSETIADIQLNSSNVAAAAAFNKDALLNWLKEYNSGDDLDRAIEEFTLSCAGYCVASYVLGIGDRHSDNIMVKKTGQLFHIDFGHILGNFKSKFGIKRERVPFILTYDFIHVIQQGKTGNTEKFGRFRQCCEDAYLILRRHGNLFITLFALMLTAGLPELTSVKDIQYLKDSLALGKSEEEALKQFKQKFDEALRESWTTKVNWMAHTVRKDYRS
Target sequence in this assay (P27986 461-568 partner): as the sequence (P27986 461-568 partner) above
Description: Kinase Glo Luminescent Kinase Assay (Kglo) for Pb 3-Kinase Alpha (A), Pb 3-Kinase Beta (B), Vps34 (C), Pb 4-Kinase Beta (D)
The Kinase Glo Luminescent Kinase Assay (Promega, Madison/Wis., USA) is a homogeneous HTS method of measuring kinase activity by quantifying the amount of ATP remaining in solution following a kinase reaction.
L-α-phosphatidylinositol (PI), provided as 10 mg/ml solution in methanol, was transferred into a glass tube and dried under a nitrogen beam. It was then resuspended in 3% OctylGlucoside (1-0-n-octyl-beta-D-glucopyranoside) by vortexing and stored at 4° C. 5 μL of a mix of PI/OctylGlucoside with the PI 3-kinase alpha and PI 3-kinase beta subtypes, or Vps34 or PI 4-kinase beta were added. Kinase reactions were started by the addition of 5 μl of an ATP-mix containing in a final volume 10 μL 10 mM TRIS-HCl pH 7.5, 3 mM MgCl2, 50 mM NaCl, 0.05% CHAPS, 1 mM DTT and 1 μM ATP at room temperature.
All fits were performed with the program XLfit4 (ID Business Solutions, Guildford, UK).
The next data set deals with Vps34 (Homo sapiens, UniProt Q8NEB9). The data set can be described thus: Kinase Glo Luminescent Kinase Assay (Kglo), assay C. Format: biochemical. Conditions: read-out: Assay C VPS34 IC50.
Sequence of Vps34 (Q8NEB9 whole entry, species assumed): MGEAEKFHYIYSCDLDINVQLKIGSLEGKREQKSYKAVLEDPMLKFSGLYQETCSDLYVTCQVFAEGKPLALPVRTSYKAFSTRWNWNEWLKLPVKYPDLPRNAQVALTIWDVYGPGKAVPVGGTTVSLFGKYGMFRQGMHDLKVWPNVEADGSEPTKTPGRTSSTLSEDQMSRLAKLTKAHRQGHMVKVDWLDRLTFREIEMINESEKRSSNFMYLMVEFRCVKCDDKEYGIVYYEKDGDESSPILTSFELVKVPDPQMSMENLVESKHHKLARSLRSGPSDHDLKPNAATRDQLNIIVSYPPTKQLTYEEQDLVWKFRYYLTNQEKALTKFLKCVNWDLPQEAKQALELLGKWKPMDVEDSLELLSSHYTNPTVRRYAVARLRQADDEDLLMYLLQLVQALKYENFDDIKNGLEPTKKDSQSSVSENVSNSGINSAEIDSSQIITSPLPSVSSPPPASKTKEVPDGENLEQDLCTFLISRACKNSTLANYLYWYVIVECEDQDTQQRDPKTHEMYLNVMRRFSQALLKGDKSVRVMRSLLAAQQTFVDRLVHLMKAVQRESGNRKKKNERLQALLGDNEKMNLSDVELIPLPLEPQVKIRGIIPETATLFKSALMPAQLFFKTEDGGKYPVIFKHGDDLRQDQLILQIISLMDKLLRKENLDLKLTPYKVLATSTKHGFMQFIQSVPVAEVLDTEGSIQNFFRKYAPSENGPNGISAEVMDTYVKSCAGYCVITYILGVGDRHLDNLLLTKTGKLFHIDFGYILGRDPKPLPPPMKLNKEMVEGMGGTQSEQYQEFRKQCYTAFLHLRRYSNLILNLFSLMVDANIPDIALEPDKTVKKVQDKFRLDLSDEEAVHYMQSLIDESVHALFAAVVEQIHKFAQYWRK
A short description of data set [8]: Microsomal clearance assay (M). The note with it: intrinsic clearance in rat liver microsomes.
Description: The experiments were performed in 96-well glass plates at 37° C. on an automated Tecan EVO platform. Test compounds at a concentration of 10 mM in pure DMSO were diluted 1:1000 in water to 10 μM. […] Reactions were initiated by the addition of 150 μL of a cofactor solution containing 2 mM NADPH.
Data set [9] concerns the target T4, PI 3-kinase beta. The data set can be described thus: Cellular assay I1, p-Akt (S473) in Rat-1 cells, Surefire format. Format: cell-based. The note with it: non-asterisked data: version I1 (Surefire format), Rat-1 cells; read-out: Assay I PI3Kβ IC50.
Target sequence in this assay (P42338 whole entry): as the sequence (P42338 whole entry) above
Target sequence in this assay (Q63787 whole entry partner): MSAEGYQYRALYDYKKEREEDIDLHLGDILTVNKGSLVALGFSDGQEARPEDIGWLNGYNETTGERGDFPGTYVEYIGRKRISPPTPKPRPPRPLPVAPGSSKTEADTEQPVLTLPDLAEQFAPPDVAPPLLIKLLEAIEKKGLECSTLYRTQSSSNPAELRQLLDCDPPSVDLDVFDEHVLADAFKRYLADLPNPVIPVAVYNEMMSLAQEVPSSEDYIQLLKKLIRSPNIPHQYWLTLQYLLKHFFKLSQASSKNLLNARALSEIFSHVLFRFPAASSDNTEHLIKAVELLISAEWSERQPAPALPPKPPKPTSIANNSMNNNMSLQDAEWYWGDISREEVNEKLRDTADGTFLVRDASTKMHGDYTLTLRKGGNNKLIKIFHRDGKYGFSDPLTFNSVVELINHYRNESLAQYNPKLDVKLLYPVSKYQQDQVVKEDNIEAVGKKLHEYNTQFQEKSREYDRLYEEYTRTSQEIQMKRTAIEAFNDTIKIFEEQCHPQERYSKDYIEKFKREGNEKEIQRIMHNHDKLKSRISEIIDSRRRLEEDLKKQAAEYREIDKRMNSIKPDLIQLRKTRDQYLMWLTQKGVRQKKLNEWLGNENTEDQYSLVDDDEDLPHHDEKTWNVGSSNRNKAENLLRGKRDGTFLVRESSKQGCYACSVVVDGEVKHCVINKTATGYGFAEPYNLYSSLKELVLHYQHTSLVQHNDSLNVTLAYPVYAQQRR
The next data set concerns the target mTOR (Homo sapiens, UniProt P42345). The data set can be described thus: Lanthascreen kinase binding assay, assay G. Conditions: read-out: Assay G mTOR IC50.

Usually IC50 stands for the concentration that inhibits the measured activity by half.

Structures can show the parent of a compound that is named as a salt.

T1 sequence (P48736 whole entry): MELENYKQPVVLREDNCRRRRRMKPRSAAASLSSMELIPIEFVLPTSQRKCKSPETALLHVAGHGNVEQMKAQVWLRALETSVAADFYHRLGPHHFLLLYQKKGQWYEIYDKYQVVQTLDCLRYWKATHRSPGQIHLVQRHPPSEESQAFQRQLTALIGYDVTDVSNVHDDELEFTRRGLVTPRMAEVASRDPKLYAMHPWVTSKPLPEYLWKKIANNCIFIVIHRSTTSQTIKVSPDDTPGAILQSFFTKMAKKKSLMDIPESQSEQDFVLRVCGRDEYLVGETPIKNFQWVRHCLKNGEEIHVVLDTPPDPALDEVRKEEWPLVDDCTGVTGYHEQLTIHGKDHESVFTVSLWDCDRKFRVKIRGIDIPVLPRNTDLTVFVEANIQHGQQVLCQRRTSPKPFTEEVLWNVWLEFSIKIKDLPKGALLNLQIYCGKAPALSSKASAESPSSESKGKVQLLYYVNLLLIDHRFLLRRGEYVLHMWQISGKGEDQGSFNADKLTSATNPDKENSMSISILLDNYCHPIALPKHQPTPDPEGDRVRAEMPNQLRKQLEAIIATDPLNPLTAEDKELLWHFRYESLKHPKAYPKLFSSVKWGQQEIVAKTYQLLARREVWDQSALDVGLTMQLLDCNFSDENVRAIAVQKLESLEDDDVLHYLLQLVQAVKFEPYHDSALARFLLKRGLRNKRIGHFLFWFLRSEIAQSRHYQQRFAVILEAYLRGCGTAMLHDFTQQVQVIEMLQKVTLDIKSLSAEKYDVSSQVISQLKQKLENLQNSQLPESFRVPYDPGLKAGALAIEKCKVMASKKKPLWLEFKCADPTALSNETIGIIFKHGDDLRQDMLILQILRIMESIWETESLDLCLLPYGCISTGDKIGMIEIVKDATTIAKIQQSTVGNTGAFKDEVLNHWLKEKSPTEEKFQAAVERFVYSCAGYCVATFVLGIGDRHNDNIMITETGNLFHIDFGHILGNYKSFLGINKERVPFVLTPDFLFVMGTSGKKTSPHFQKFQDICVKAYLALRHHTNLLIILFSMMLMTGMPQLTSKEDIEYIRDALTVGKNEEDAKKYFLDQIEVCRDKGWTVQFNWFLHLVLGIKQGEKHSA
Description for mTOR: Lanthascreen™ Kinase Binding Assay for mTOR (G)
Binding of an inhibitor to the kinase competes for binding with the tracer, resulting in a loss of FRET.
50 nL of compound dilutions were dispensed onto white 384-well small volume polystyrene plate.

For `Cc1ncc(-c2nc(-c3cc(S(=O)(=O)NC4CC(O)C4)ccc3C)cnc2N)s1` (mixture of isomers) [Example 43, 3-(5-Amino-6-(2-methylthiazol-5-yl)pyrazin-2-yl)-N-(3-hydroxycyclobutyl)-4-methylbenzenesulfonamide], the IC50 was 15 nM on PI 3-kinase gamma [1]; 6 nM on PI 3-kinase gamma [2]; 1400 nM at PI 4-kinase beta; 220 nM on PI 3-kinase delta [3]; 50 nM on PI 3-kinase alpha [4]; 1190 nM on PI 3-kinase delta [5]. Also, the IC50 on PI 3-kinase alpha [6] was 1390 nM; on PI 3-kinase beta [7] it was 200 nM; at Vps34 it was 900 nM; at PI 3-kinase beta [9], more than 10000 nM. In [8], the “Assay M RLM CI(int)” value worked out at 55 µL/min/mg.

As for `Cc1ccc(S(=O)(=O)NCCC(O)C(F)(F)F)cc1-c1cnc(N)c(-c2cnn(C)c2)n1` (stereo not drawn) [Example 51, 3-(5-Amino-6-(1-methyl-1H-pyrazol-4-yl)pyrazin-2-yl)-4-methyl-N-(4,4,4-trifluoro-3-hydroxybutyl)benzenesulfonamide], the IC50 at PI 3-kinase gamma [1] was 68 nM; on PI 3-kinase gamma [2] it was 42 nM; on PI 4-kinase beta it was more than 9100 nM; at PI 3-kinase delta [3] it was 490 nM; on PI 3-kinase alpha [4], 370 nM; at PI 3-kinase delta [5] it was 3950 nM. Moreover, the IC50 on PI 3-kinase alpha [6] is 6170 nM; on mTOR, more than 9100 nM; on PI 3-kinase beta [7] it was 4190 nM; at Vps34, 7150 nM; on PI 3-kinase beta [9] it was 6600 nM. Moreover, the “Assay M RLM CI(int)” value in data set [8] stood at 55 µL/min/mg.

On to `Cc1ccc(S(=O)(=O)N[C@H]2CC[C@H](O)CC2)cc1-c1cnc(N)c(-c2ccnc(F)c2)n1` [Example 60, Trans-3-(5-Amino-6-(2-fluoropyridin-4-yl)pyrazin-2-yl)-N-(-4-hydroxycyclohexyl)-4-methylbenzenesulfonamide], for which the 50% inhibitory concentration (IC50) stood at 93 nM on PI 3-kinase gamma [1]; 40 nM on PI 3-kinase gamma [2]; 3630 nM at PI 4-kinase beta; 220 nM on PI 3-kinase delta [3]; 110 nM on PI 3-kinase alpha [4]; 1300 nM on PI 3-kinase delta [5]. For the same molecule, the IC50 at PI 3-kinase alpha [6] is 1540 nM; on mTOR it was 8350 nM; at PI 3-kinase beta [7] it was 4570 nM; on Vps34, more than 9100 nM; at PI 3-kinase beta [9] it was 3080 nM. Moreover, the “Assay M RLM CI(int)” value in [8] worked out at 24 µL/min/mg.

As to `Cc1ccc(S(=O)(=O)NCCC(C)(C)O)cc1-c1cnc(N)c(-n2ccnc2)n1` [Example 61, 3-(5-Amino-6-(1H-imidazol-1-yl)pyrazin-2-yl)-N-(3-hydroxy-3-methylbutyl)-4-methylbenzenesulfonamide], the 50% inhibitory concentration (IC50) was 479 nM at PI 3-kinase gamma [1]; 1820 nM on PI 3-kinase gamma [2]; more than 9100 nM at PI 4-kinase beta; 5810 nM on PI 3-kinase delta [3]; 5470 nM at PI 3-kinase alpha [4]; 8180 nM on PI 3-kinase delta [5]. Also, the IC50 at PI 3-kinase alpha [6] is 8970 nM; at mTOR, more than 9100 nM; on PI 3-kinase beta [7], more than 9100 nM; on Vps34 it was more than 9100 nM; at PI 3-kinase beta [9] it was more than 10000 nM. Also, in data set [8], the “Assay M RLM CI(int)” value was 56 µL/min/mg.

On to `Cc1ccc(S(=O)(=O)NCCC(C)(C)O)cc1-c1cnc(N)c(-n2cnc(C(C)C)n2)n1` [Example 66, 3-(5-Amino-6-(3-isopropyl-1H-1,2,4-triazol-1-yl)pyrazin-2-yl)-N-(3-hydroxy-3-methylbutyl)-4-methylbenzenesulfonamide], for which the IC50 on PI 3-kinase gamma [1] amounted to 109 nM; at PI 3-kinase gamma [2], 6 nM; on PI 4-kinase beta, 7940 nM; at PI 3-kinase delta [3], 80 nM; on PI 3-kinase alpha [4], 190 nM; on PI 3-kinase delta [5], 730 nM. Besides, the IC50 was 990 nM on PI 3-kinase alpha [6]; 5980 nM on mTOR; more than 9100 nM at PI 3-kinase beta [7]; more than 9100 nM on Vps34; 5920 nM at PI 3-kinase beta [9]. Also, the “Assay M RLM CI(int)” value in data set [8] was 311 µL/min/mg.

`Cc1cc(-c2nc(-c3cc(S(=O)(=O)N[C@H]4CC[C@@H](O)CC4)ccc3C)cnc2N)ccn1` [Example 76, 3-(5-Amino-6-(2-methylpyridin-4-yl)pyrazin-2-yl)-N-((1s,4s)-4-hydroxycyclohexyl)-4-methylbenzenesulfonamide]: the 50% inhibitory concentration (IC50) on PI 3-kinase gamma [1] amounted to 203 nM; at PI 3-kinase gamma [2], 64 nM; on PI 4-kinase beta, 4470 nM; at PI 3-kinase delta [3], 480 nM; at PI 3-kinase alpha [4] it was 180 nM; at PI 3-kinase delta [5] it was 3520 nM. The 50% inhibitory concentration (IC50) is 3370 nM on PI 3-kinase alpha [6]; 4190 nM on mTOR; 3710 nM at PI 3-kinase beta [7]; more than 9100 nM on Vps34; more than 10000 nM at PI 3-kinase beta [9]. Further, the “Assay M RLM CI(int)” value in data set [8] was 48 µL/min/mg.

For `Cc1ccc(S(=O)(=O)NC[C@H]2CCCN2)cc1-c1cnc(N)c(-c2cn(C)nc2C)n1` [Example 106, (R)-3-(5-Amino-6-(1,3-dimethyl-1H-pyrazol-4-yl)pyrazin-2-yl)-4-methyl-N-(pyrrolidin-2-ylmethyl)benzenesulfonamide hydrochloride], the IC50 is 2280 nM at PI 3-kinase gamma [1]; 25 nM at PI 3-kinase gamma [2]; 5600 nM at PI 4-kinase beta; 140 nM on PI 3-kinase delta [3]; 100 nM on PI 3-kinase alpha [4]; more than 10000 nM at PI 3-kinase delta [5]. Moreover, the IC50 is more than 10000 nM on PI 3-kinase alpha [6], 750 nM at PI 3-kinase beta [7], more than 10000 nM at Vps34 and more than 10000 nM at PI 3-kinase beta [9]. Besides, the “Assay M RLM CI(int)” value in data set [8] came to 29 µL/min/mg.

`Cc1cc(F)c(S(=O)(=O)NCCC(C)(C)O)cc1-c1cnc(N)c(-n2cncn2)n1` [Example 116, 5-(5-Amino-6-(1H-1,2,4-triazol-1-yl)pyrazin-2-yl)-2-fluoro-N-(3-hydroxy-3-methylbutyl)-4-methylbenzenesulfonamide]: the IC50 turned out to be 197 nM at PI 3-kinase gamma [1]; 28 nM at PI 3-kinase gamma [2]; 8100 nM on PI 4-kinase beta; 300 nM at PI 3-kinase delta [3]; 1200 nM at PI 3-kinase alpha [4]; 2120 nM on PI 3-kinase delta [5]. Further, the IC50 at PI 3-kinase alpha [6] is 2310 nM; on mTOR, more than 9100 nM; at PI 3-kinase beta [7], more than 9100 nM; on Vps34, more than 9100 nM; on PI 3-kinase beta [9], 4750 nM. For the same molecule, the “Assay M RLM CI(int)” value in data set [8] was found to be 35 µL/min/mg.

Regarding `COc1cc(-c2nc(-c3cc(S(=O)(=O)NCCC(C)(C)O)ccc3C)cnc2N)ccn1` [Example 119.3], the IC50 turned out to be 3640 nM at PI 3-kinase gamma [1]; 44 nM on PI 3-kinase gamma [2]; 7460 nM on PI 4-kinase beta; 130 nM on PI 3-kinase delta [3]; 90 nM on PI 3-kinase alpha [4]; 870 nM at PI 3-kinase delta [5]. In addition, the IC50 at PI 3-kinase alpha [6] is 490 nM; on mTOR, 3700 nM; on PI 3-kinase beta [7], 7490 nM; at Vps34 it was more than 9100 nM; on PI 3-kinase beta [9], 1770 nM. The “Assay M RLM CI(int)” value in data set [8] is 81 µL/min/mg.

Take `Cc1ccc(S(=O)(=O)NCCC(C)(C)O)cc1-c1cnc(N)c(-c2cccnc2)n1` [Example 119.5]: the IC50 was determined as 575 nM at PI 3-kinase gamma [1]; 82 nM at PI 3-kinase gamma [2]; 8000 nM on PI 4-kinase beta; 550 nM on PI 3-kinase delta [3]; 750 nM on PI 3-kinase alpha [4]; 4850 nM at PI 3-kinase delta [5]. Also, the concentration for half-maximal inhibition (IC50) at PI 3-kinase alpha [6] is 4900 nM; on mTOR, more than 9100 nM; at PI 3-kinase beta [7], more than 9100 nM; at Vps34, more than 9100 nM; on PI 3-kinase beta [9], 1660 nM. Besides, the “Assay M RLM CI(int)” value in data set [8] was determined as 118 µL/min/mg.

For the molecule `CCOc1ccc(-c2nc(-c3cc(S(=O)(=O)NCCC(C)(C)O)ccc3C)cnc2N)cn1` [Example 119.13], the IC50 at PI 3-kinase gamma [1] is more than 10000 nM; at PI 3-kinase gamma [2], 98 nM; on PI 4-kinase beta, 4140 nM; on PI 3-kinase delta [3], 450 nM; on PI 3-kinase alpha [4], 580 nM; on PI 3-kinase delta [5] it was 3260 nM. Further, the IC50 at PI 3-kinase alpha [6] is 2450 nM; at mTOR, more than 9100 nM; on PI 3-kinase beta [7] it was more than 9100 nM; at Vps34 it was more than 9100 nM; at PI 3-kinase beta [9], 6750 nM. In addition, the “Assay M RLM CI(int)” value in [8] is 98 µL/min/mg.

With `CCc1noc(-c2nc(-c3cc(S(=O)(=O)N4CCC(CO)CC4)ccc3C)cnc2N)n1` [Example 141, (1-((3-(5-Amino-6-(3-ethyl-1,2,4-oxadiazol-5-yl)pyrazin-2-yl)-4-methylphenyl)sulfonyl)piperidin-4-yl)methanol], the IC50 was 947 nM at PI 3-kinase gamma [1]; 54 nM at PI 3-kinase gamma [2]; more than 9100 nM at PI 4-kinase beta; 340 nM on PI 3-kinase delta [3]; 1770 nM at PI 3-kinase alpha [4]; 5310 nM at PI 3-kinase delta [5]. The IC50 was 4700 nM on PI 3-kinase alpha [6]; more than 9100 nM at mTOR; more than 9100 nM on PI 3-kinase beta [7]; more than 9100 nM on Vps34; 8750 nM on PI 3-kinase beta [9].

For the origin of these results see US10004732B2 (Novartis AG, priority 2014, dated 2018).
